Experimental data: US8809372B2, “Pyridine derivatives” (Endo Pharmaceuticals, Inc., priority 2011, dated 2014)

What was measured:
[1] = target: T1, human CYP17 in LNCap-CYP17 cells (Homo sapiens, UniProt P05093); experiment: Cell-based human CYP17 inhibition assay, LNCap-CYP17 cells; details: 16 hours
T1 construct: expressed in transfected cells
T1 sequence (P05093 1-508): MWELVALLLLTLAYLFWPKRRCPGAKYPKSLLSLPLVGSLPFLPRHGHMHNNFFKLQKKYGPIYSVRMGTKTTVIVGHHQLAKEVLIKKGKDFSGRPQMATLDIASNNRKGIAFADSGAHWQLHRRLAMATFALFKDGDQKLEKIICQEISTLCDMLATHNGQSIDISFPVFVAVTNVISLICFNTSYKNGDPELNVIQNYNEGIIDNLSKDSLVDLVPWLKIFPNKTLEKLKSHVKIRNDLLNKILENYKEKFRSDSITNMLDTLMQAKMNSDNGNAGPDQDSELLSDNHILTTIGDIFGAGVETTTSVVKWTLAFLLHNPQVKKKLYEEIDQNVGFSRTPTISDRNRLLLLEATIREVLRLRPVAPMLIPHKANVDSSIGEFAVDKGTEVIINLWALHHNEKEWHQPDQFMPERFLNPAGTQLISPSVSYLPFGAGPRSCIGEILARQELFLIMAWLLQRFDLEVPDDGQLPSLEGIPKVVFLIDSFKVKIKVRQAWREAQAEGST
Protocol: Cell-Based Human CYP17 Inhibition Assay
1. H295R Adrenocortical Carcinoma Cells and Growth Media: The media for the H295R Adrenocortical carcinoma cells [NCI-H295A, ATCC Number CRL-2128, American Type Culture Collection, Manassas, Va., US] (500 mL) was a DMEM:F12 Mix 1:1 with 5% (2 mL) BD Nu Serum; 1% (5 mL) ITS+Premix [BD Biosciences] and 1% Penstrep. 2. LNCap-CYP17 Cells and Growth Media: Full length hCYP17a1 gene (NCBI Reference Sequence: NM_000102.3) was cloned in pcDNA3.1(+) vector between HindIII and XhoI site. The pcDNA3.1(+) vector contains the Neomycin resistance gene and was used for selection of stable cell line. The hCYP17a1 containing pcDNA3.1(+) was transfected into LNCap cells to create the LNCap-CYP17 cell line. The media for the LNCaP-CYP17 cells was RPMI 1640, 10% FBS, 1% PenStrep, Geneticin 400 μg/mL.
The H295R cells or LNCaP-hCYP17 cells were subcultured and 30,000 cells per well were seeded in a poly-d lysine plate and incubated overnight at 37° C. The next day the media was removed and 200 μL of fresh media with ^3H3-17α-hydroxy-pregnenolone (1:1000) was added. 50 μL of serially diluted compounds from a 5× plate (5 times the final desired concentration) was added. […]
The plates were incubated overnight (16 hours) at 37° C. […] Following the incubation for 30 minutes, readings for the radiotracer were taken using a Microbeta® trilux.

SMILES: CC(O)(c1ccncc1)c1cnc(-c2ccc(F)cc2)s1 (racemic) [Example 7, 1-(2-(4-Fluorophenyl)thiazol-5-yl)-1-(pyridin-4-yl)ethanol]
- melting point: 229 to 232 °C

SMILES: COc1ccc(-c2ccc(C(C)(O)c3ccncc3)nc2)cc1 (racemic) [Example 1, 1-(5-(4-Methoxyphenyl)pyridin-2-yl)-1-(pyridin-4-yl)ethanol]
- IC50 [1]: 0.201 to 10 µM
